Experiments:
[1] = test system: AMP-activated protein kinase (AMPK) partially purified from rat liver (DEAE-Sepharose fraction); format: biochemical; conditions: 200 µM
[2] = biological target: T1, Saccharomyces cerevisiae SNF1 protein kinase, wild type (Saccharomyces cerevisiae, UniProt P06782+P12904); assay: SAMS peptide phosphorylation assay in yeast extracts; format: biochemical; conditions: over a range of AMP concentrations; data not shown
T1 construct: We were able to detect kinase activity using this assay in wild type yeast extracts; endogenous in cells; host or cells: wild type Saccharomyces cerevisiae extract
T1 sequence (P06782 1-633): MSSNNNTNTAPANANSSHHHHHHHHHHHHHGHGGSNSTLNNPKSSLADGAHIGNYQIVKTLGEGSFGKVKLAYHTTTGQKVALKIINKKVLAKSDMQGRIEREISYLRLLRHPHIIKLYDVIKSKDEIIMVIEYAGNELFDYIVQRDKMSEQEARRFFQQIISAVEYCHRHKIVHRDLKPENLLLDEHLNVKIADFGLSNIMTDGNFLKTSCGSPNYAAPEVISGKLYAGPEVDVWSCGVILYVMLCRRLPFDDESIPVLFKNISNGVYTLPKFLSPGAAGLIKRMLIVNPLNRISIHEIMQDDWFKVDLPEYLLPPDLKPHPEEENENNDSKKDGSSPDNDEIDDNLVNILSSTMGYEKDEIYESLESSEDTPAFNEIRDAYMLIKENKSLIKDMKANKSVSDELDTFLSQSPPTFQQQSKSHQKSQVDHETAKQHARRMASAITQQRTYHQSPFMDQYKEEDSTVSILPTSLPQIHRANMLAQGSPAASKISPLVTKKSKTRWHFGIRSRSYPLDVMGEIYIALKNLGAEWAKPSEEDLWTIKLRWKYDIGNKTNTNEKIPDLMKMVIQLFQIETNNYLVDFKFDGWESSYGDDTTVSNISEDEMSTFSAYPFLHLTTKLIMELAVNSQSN
T1 sequence (P12904 1-322): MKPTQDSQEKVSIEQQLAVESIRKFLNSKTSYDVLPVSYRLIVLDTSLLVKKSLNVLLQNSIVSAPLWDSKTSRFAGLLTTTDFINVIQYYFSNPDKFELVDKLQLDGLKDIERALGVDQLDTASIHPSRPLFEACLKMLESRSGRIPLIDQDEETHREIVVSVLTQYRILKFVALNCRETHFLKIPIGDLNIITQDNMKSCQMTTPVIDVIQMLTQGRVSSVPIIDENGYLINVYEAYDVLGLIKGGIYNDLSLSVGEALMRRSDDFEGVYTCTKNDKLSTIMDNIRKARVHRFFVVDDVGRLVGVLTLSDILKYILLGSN
From the text: In Saccharomyces cerevisiae SNF1 protein kinase activity is essential for release of genes from glucose repression. […] The amino acid sequences of SNF1 and AMPK are 46% identical. We investigated whether SNF1 and AMPK shared any functional similarity in addition to their primary sequence homology. […] We believe that this polypeptide is likely to be involved in the regulation of mammalian AMPK in the same way that SNF4 regulates SNF1 function in yeast. […] The apparent Km of SAMS peptide for SNF1 (20 μM) was similar to that of the AMPK (data not shown).

[3] = test system: AMP-activated protein kinase (AMPK) purified from rat liver; conditions: cited from earlier work

stimulation of AMPK activity by AMP [1]: approximately 3 fold
Structure (SMILES): Nc1ncnc2c1ncn2[C@@H]1O[C@H](COP(=O)(O)O)[C@@H](O)[C@H]1O [AMP]
activation of SNF1 by AMP [2]: unable to detect any significant activation
activation of AMPK by AMP [3]: approximately 5 fold
